According to ChEMBL document CHEMBL1221367, “A new series of macrolide derivatives with 4''-O-saccharide substituents” (2010):
In brackets after ≈: the same amount, converted by molar mass.

Assays:
Format in all cases: functional
Staphylococcus aureus [1] = experiment: Antibacterial activity against methicillin-susceptible Staphylococcus aureus ATCC 29213 by the broth microdilution method
Staphylococcus aureus [2] = experiment: Antibacterial activity against methicillin-resistant Staphylococcus aureus BK2464 by the broth microdilution method
[3] = tested on: Staphylococcus epidermidis; experiment: Antibacterial activity against methicillin-resistant Staphylococcus epidermidis MRSE-1 by the broth microdilution method
Streptococcus pneumoniae [4] = experiment: Antibacterial activity against erythromycin-resistant Streptococcus pneumoniae ERSP-2 expressing ermB and mef by the broth microdilution method
Streptococcus pyogenes [5] = experiment: Antibacterial activity against erythromycin-resistant Streptococcus pyogenes 8902 expressing ermB by the broth microdilution method
Streptococcus pyogenes [6] = experiment: Antibacterial activity against Streptococcus pyogenes ERSPy-1 expressing mef by the broth microdilution method
Streptococcus pyogenes [7] = experiment: Ratio of compound MIC to clarithromycin MIC for Streptococcus pyogenes ERSPy-1 expressing mef
Streptococcus pyogenes [8] = experiment: Ratio of compound MIC to clarithromycin MIC for erythromycin-resistant Streptococcus pyogenes 8902 expressing ermB
Streptococcus pneumoniae [9] = experiment: Ratio of compound MIC to clarithromycin MIC for erythromycin-resistant Streptococcus pneumoniae ERSP-2 expressing ermB and mef

Compound | MIC (Staphylococcus aureus [1]) | MIC (Staphylococcus aureus [2]) | MIC [3] | MIC (Streptococcus pneumoniae [4]) | MIC (Streptococcus pyogenes [5]) | MIC (Streptococcus pyogenes [6]) | Ratio (Streptococcus pyogenes [7]) | Ratio (Streptococcus pyogenes [8]) | Ratio (Streptococcus pneumoniae [9])
CC[C@H]1OC(=O)[C@H](C)C(=O)[C@H](C)[C@@H](O[C@@H]2O[C@H](C)C[C@H](N(C)C)[C@H]2O)[C@](C)(OC)C[C@@H](C)C(=O)[C@H](C)[C@H]2N(CCCCn3cnc(-c4cccnc4)c3)C(=O)O[C@]12C [TELITHROMYCIN] | 0.125 µg/mL (≈ 0.154 µM) | > 32 µg/mL | 0.125 µg/mL (≈ 0.154 µM) | 0.125 µg/mL (≈ 0.154 µM) | 0.25 µg/mL (≈ 0.308 µM) | 0.25 µg/mL (≈ 0.308 µM) | – | – | –
CC[C@H]1OC(=O)[C@H](C)[C@@H](O[C@H]2C[C@@](C)(OC)[C@@H](O[C@@H]3O[C@@H]4COC(c5ccccc5)O[C@H]4[C@H](O)[C@H]3O)[C@H](C)O2)[C@H](C)[C@@H](O[C@@H]2O[C@H](C)C[C@H](N(C)C)[C@H]2O)[C@](C)(OC)C[C@@H](C)C(=O)[C@H](C)[C@H]2N(CCCCn3cnc4cccnc43)C(=O)O[C@]12C (stereo not given in full) | 4 µg/mL (≈ 3.34 µM) | > 16 µg/mL | 4 µg/mL (≈ 3.34 µM) | 2 µg/mL (≈ 1.67 µM) | 4 µg/mL (≈ 3.34 µM) | 0.5 µg/mL (≈ 0.418 µM) | 4 | 8 | 8
CC[C@H]1OC(=O)[C@H](C)[C@@H](O[C@H]2C[C@@](C)(OC)[C@@H](O[C@@H]3O[C@H](CO)[C@@H](O)[C@H](O)[C@H]3O)[C@H](C)O2)[C@H](C)[C@@H](O[C@@H]2O[C@H](C)C[C@H](N(C)C)[C@H]2O)[C@](C)(OC)C[C@@H](C)C(=O)[C@H](C)[C@H]2N(CCCCn3cnc4cccnc43)C(=O)O[C@]12C | > 16 µg/mL | > 16 µg/mL | > 16 µg/mL | 8 µg/mL (≈ 7.22 µM) | 16 µg/mL (≈ 14.4 µM) | 16 µg/mL (≈ 14.4 µM) | – | – | –
CC[C@H]1OC(=O)[C@H](C)[C@@H](O[C@H]2C[C@@](C)(OC)[C@@H](O[C@@H]3O[C@H](CO)[C@@H](O)[C@H](O)[C@H]3O)[C@H](C)O2)[C@H](C)[C@@H](O[C@@H]2O[C@H](C)C[C@H](N(C)C)[C@H]2O)[C@](C)(OC)C[C@@H](C)C(=O)[C@H](C)[C@@H](O)[C@]1(C)O | > 16 µg/mL | > 16 µg/mL | 16 µg/mL (≈ 17.6 µM) | 16 µg/mL (≈ 17.6 µM) | 16 µg/mL (≈ 17.6 µM) | 16 µg/mL (≈ 17.6 µM) | – | – | –
CC[C@H]1OC(=O)[C@H](C)[C@@H](O[C@H]2C[C@@](C)(OC)[C@@H](O)[C@H](C)O2)[C@H](C)[C@@H](O[C@@H]2O[C@H](C)C[C@H](N(C)C)[C@H]2O)[C@](C)(OC)C[C@@H](C)C(=O)[C@H](C)[C@@H](O)[C@]1(C)O [CLARITHROMYCIN] | 0.25 µg/mL (≈ 0.334 µM) | > 32 µg/mL | 16 µg/mL (≈ 21.4 µM) | 16 µg/mL (≈ 21.4 µM) | 32 µg/mL (≈ 42.8 µM) | 2 µg/mL (≈ 2.67 µM) | – | – | –
CC[C@H]1OC(=O)[C@H](C)[C@@H](O[C@H]2C[C@@](C)(OC)[C@@H](O[C@@H]3O[C@H](COC(=O)c4ccccc4)[C@@H](O)[C@H](O)[C@H]3OC(C)=O)[C@H](C)O2)[C@H](C)[C@@H](O[C@@H]2O[C@H](C)C[C@H](N(C)C)[C@H]2O)[C@](C)(OC)C[C@@H](C)C(=O)[C@H](C)[C@@H](O)[C@]1(C)O | 16 µg/mL (≈ 15.1 µM) | > 16 µg/mL | 16 µg/mL (≈ 15.1 µM) | 8 µg/mL (≈ 7.57 µM) | 16 µg/mL (≈ 15.1 µM) | 8 µg/mL (≈ 7.57 µM) | – | – | –
CC[C@H]1OC(=O)[C@H](C)[C@@H](O[C@H]2C[C@@](C)(OC)[C@@H](O[C@H]3O[C@H](COC(C)=O)[C@@H](OC(=O)c4ccccc4)[C@H](OC(C)=O)[C@H]3OC(C)=O)[C@H](C)O2)[C@H](C)[C@@H](O[C@@H]2O[C@H](C)C[C@H](N(C)C)[C@H]2O)[C@](C)(OC)C[C@@H](C)C(=O)[C@H](C)[C@@H](O)[C@]1(C)O | 16 µg/mL (≈ 14 µM) | > 16 µg/mL | 16 µg/mL (≈ 14 µM) | 16 µg/mL (≈ 14 µM) | 16 µg/mL (≈ 14 µM) | 1 µg/mL (≈ 0.877 µM) | – | – | –
CC[C@H]1OC(=O)[C@H](C)[C@@H](O[C@H]2C[C@@](C)(OC)[C@@H](O[C@@H]3O[C@@H]4COC(c5ccccc5)O[C@H]4[C@H](O)[C@H]3O)[C@H](C)O2)[C@H](C)[C@@H](O[C@@H]2O[C@H](C)C[C@H](N(C)C)[C@H]2O)[C@](C)(OC)C[C@@H](C)C(=O)[C@H](C)[C@H]2N(CCCCn3cnc4ncccc43)C(=O)O[C@]12C (stereo not given in full) | 4 µg/mL (≈ 3.34 µM) | > 16 µg/mL | 4 µg/mL (≈ 3.34 µM) | 1 µg/mL (≈ 0.836 µM) | 8 µg/mL (≈ 6.69 µM) | 2 µg/mL (≈ 1.67 µM) | – | – | –
CC[C@H]1OC(=O)[C@H](C)[C@@H](O[C@H]2C[C@@](C)(OC)[C@@H](O[C@@H]3O[C@H](CO)[C@@H](O)[C@H](O)[C@H]3OC(C)=O)[C@H](C)O2)[C@H](C)[C@@H](O[C@@H]2O[C@H](C)C[C@H](N(C)C)[C@H]2O)[C@](C)(OC)C[C@@H](C)C(=O)[C@H](C)[C@@H](O)[C@]1(C)O | > 16 µg/mL | > 16 µg/mL | > 16 µg/mL | 16 µg/mL (≈ 16.8 µM) | > 16 µg/mL | 16 µg/mL (≈ 16.8 µM) | – | – | –
CC[C@H]1OC(=O)[C@H](C)[C@@H](O[C@H]2C[C@@](C)(OC)[C@@H](O[C@@H]3O[C@H](CO)[C@@H](O)[C@H](O)[C@H]3O)[C@H](C)O2)[C@H](C)[C@@H](O[C@@H]2O[C@H](C)C[C@H](N(C)C)[C@H]2O)[C@](C)(OC)C[C@@H](C)C(=O)[C@H](C)[C@H]2N(CCCCn3cnc4ncccc43)C(=O)O[C@]12C | > 16 µg/mL | > 16 µg/mL | > 16 µg/mL | 8 µg/mL (≈ 7.22 µM) | 16 µg/mL (≈ 14.4 µM) | 8 µg/mL (≈ 7.22 µM) | – | – | –
CC[C@H]1OC(=O)[C@H](C)[C@@H](O[C@H]2C[C@@](C)(OC)[C@@H](O[C@@H]3O[C@H](CO)[C@@H](O[C@H]4O[C@@H](CO)[C@H](O)[C@@H](O)[C@@H]4O)[C@H](O)[C@H]3O)[C@H](C)O2)[C@H](C)[C@@H](O[C@@H]2O[C@H](C)C[C@H](N(C)C)[C@H]2O)[C@](C)(OC)C[C@@H](C)C(=O)[C@H](C)[C@@H](O)[C@]1(C)O | > 16 µg/mL | > 16 µg/mL | > 16 µg/mL | 16 µg/mL (≈ 14.9 µM) | > 16 µg/mL | > 16 µg/mL | – | – | –
CC[C@H]1OC(=O)[C@H](C)[C@@H](O[C@H]2C[C@@](C)(OC)[C@@H](O[C@@H]3O[C@H](COC(=O)c4ccccc4)[C@@H](OC(=O)c4ccccc4)[C@H](OC(C)=O)[C@H]3OC(C)=O)[C@H](C)O2)[C@H](C)[C@@H](O[C@@H]2O[C@H](C)C[C@H](N(C)C)[C@H]2O)[C@](C)(OC)C[C@@H](C)C(=O)[C@H](C)[C@@H](O)[C@]1(C)O | > 16 µg/mL | > 16 µg/mL | 16 µg/mL (≈ 13.3 µM) | 16 µg/mL (≈ 13.3 µM) | 16 µg/mL (≈ 13.3 µM) | 8 µg/mL (≈ 6.65 µM) | – | – | –
